Where a name gives a salt, the structure may show the parent alone.

One data set concerns the target PDE 4. The data set is described as follows: Inhibition of PDE 4 compared with rolipram, enzyme preparation obtained from the line U937. In kind it is biochemical, human. The following applies: ratio to rolipram on the same enzymatic preparation; PDE 4 from U937 line; inhibitor 0.1 to 100 μM. The procedure:
The capacity of the compounds of formula (I) of the invention to inhibit cyclic nucleotide phosphodiesterases is evaluated by measuring their IC50 (concentration necessary to inhibit the enzymatic activity by 50%). In the case of PDEs 4, this value is compared to the IC50 of rolipram, a PDE 4-specific inhibitor, relative to the IC50 of rolipram on the IC50 of the product to be tested with respect to the same enzymatic preparation.
The various types of phosphodiesterase are obtained partially purified on a DEAE-cellulose column from guinea pig trachea and dog aorta according to a method adapted from W. J. Thompson et al., 1979, Advances in Cyclic Nucleotide Research, Vol. 10: 69-92, ed. G. Brooker et al. Raven Press, New York, and from P. J. Silver et al., 1988, Eur. J. Pharmacol. 150: 85-94, and from the U937 cell line of human origin, according to a method adapted from T. J. Torphy et al., 1992, J. Pharm. Exp. Ther. 263: 1195-1205.
Measurement of the enzymatic activity for the various types of PDE, and in particular for the PDEs 4, is then made according to a method also adapted from W. J. Thompson, Ibidem.
In order to determine the IC50, the enzymatic activity is measured in the presence of the inhibitor over a range of concentrations from 0.1 to 100 μM.
The following table illustrates the inhibitory activity of PDE 4 when compared with that of rolipram on an enzyme preparation obtained from the line U937.
Take `Nc1cc2c3c(c1)C(c1ccccc1)=N[C@@H](NC(=O)c1ccncc1)C(=O)N3CC2` [12A (salt)]: the “IC50 rolipram / IC50 example” value came to 5.7.

With `O=C(N[C@@H]1N=C(c2ccccc2)c2cc(O)cc3c2N(CC3)C1=O)c1cc2ccccc2cn1` [Example 1, (3R)-Isoguinoline-3-carboxylic acid (9-hydroxy-4-oxo-1-phenyl-3,4,6,7-tetrahydro-[1,4]diazepino[6,7,1-hi]indol-3-yl)amide], the “IC50 rolipram / IC50 example” value came out at 1.9.

For `Nc1cc2c3c(c1)C(c1ccccc1)=N[C@@H](NC(=O)c1cc(Cl)c(N)c(Cl)c1)C(=O)N3CC2` [Example 4, (3R)-4-Amino-N-(9-amino-4-oxo-1-phenyl-3,4,6,7-tetrahydro[1,4]diazepino [6,7,1-hi]indol-3-yl)-3,5-dichlorobenzamide], the “IC50 rolipram / IC50 example” value is 33.0.

`COc1cc(N)c(Cl)cc1C(=O)N[C@@H]1N=C(c2ccccc2)c2cc(N)cc3c2N(CC3)C1=O` [Example 8, (3R)-4-Amino-N-(9-amino-4-oxo-1-phenyl-3,4,6,7-tetrahydro[1,4]diazepino[6,7,1-hi]indol-3-yl)-5-chloro-2-methoxybenzamide]: the “IC50 rolipram / IC50 example” value was 3.4.

Turning to `Nc1cc2c3c(c1)C(c1ccccc1)=N[C@@H](NC(=O)c1ccncc1)C(=O)N3CC2` [Example 12, (3R)-N-(9-Amino-4-oxo-1-phenyl-3,4,6,7-tetra-hydro[1,4]diazepinor [6,7,1-hi]indol-3-yl)-isonicotinamide], the “IC50 rolipram / IC50 example” value turned out to be 2.0.

On to `CC(C)(C)OC(=O)Nc1cnccc1C(=O)N[C@@H]1N=C(c2ccccc2)c2cc(N)cc3c2N(CC3)C1=O` [Example 13, (3R)-3-t-Butyloxycarbonylamino-N-(9-amino-4-oxo-1-phenyl-3,4,6,7-tetrahydro[1,4]diazepino[6,7,1-hi]indol-3-yl)isonicotinamide], for which the “IC50 rolipram / IC50 example” value is given as 1.6.

On to `Nc1cc2c3c(c1)C(c1ccccc1)=N[C@@H](NC(=O)c1cc4ccccc4cn1)C(=O)N3CC2` [Example 18, (3R)-Isoquinoline-3-carboxylic acid (9-amino-4-oxo-1-phenyl-3,4,6,7-tetrahydro[1,4]-diazepino[6,7,1-hi]indol-3-yl)amide], for which the “IC50 rolipram / IC50 example” value turned out to be 11.0.

For `Nc1cc2c3c(c1)C(c1ccccc1)=N[C@@H](NC(=O)c1cnc4ccccc4c1)C(=O)N3CC2` [Example 19, (3R)-Quinoline-3-carboxylic acid (9-amino-4-oxo-1-phenyl-3,4,6,7-tetrahydro[1,4]-diazepino[6,7,1-hi]indol-3-yl)amide], the “IC50 rolipram / IC50 example” value turned out to be 1.4.

For `Cc1cc2nnc(C(=O)N[C@@H]3N=C(c4ccccc4)c4cc(N)cc5c4N(CC5)C3=O)c(C)n2n1` [Example 20, (3R)-4,7-Dimethylpyrazolo[5,1-c][1,2,4]triazine-3-carboxylic acid (9-amino-4-oxo-1-phenyl-3,4,6,7-tetrahydro[1,4]-diazepino[6,7,1-hi]indol-3-yl)amide], the “IC50 rolipram / IC50 example” value turned out to be 1.1.

Regarding `CN(C)c1cc2c3c(c1)C(c1ccccc1)=N[C@@H](NC(=O)c1cc(Cl)c(N)c(Cl)c1)C(=O)N3CC2` [Example 21, (3R)-4-Amino-3,5-dichloro-N-(9-dimethylamino-4-oxo-1-phenyl-3,4,6,7-tetrahydro[1,4]-diazepino[6,7,1-hi]indol-3-yl)benzamide], the “IC50 rolipram / IC50 example” value turned out to be 3.3.

`Nc1cc2c3c(c1)C(c1ccccc1)=N[C@@H](NC(=O)c1cc4ccccc4o1)C(=O)N3CC2` [Example 30, (3R)N-(9-amino-4-oxo-1-phenyl-3,4, 67-tetrahydro[1,4]diazepino[6,7,1-hi]indol-3-yl)-2-benzofuranecarboxamide]: the “IC50 rolipram / IC50 example” value is 15.0.

Consider `Cc1cc2nnc(C(=O)N[C@@H]3N=C(c4ccccc4)c4cc(N5CCCC5)cc5c4N(CC5)C3=O)c(C)n2n1` [Example 32, (3R) 4,7-dimethyl-pyrazolo[5,1-c][1,2,4]triazine-3-carboxylic acid [4-oxo-1-pheny-9-(pyrrolidin-1-yl)-3,4,6,7-tetrahydro[1,4]diazepino[6,7,1-hi]indol-3-yl)-amide], for which the “IC50 rolipram / IC50 example” value was 4.0.

For the next data set, the system named is inflammatory cells in rodents.
Experiment: not given
Conditions: in vitro; prior art; cited from earlier work.
Take `COc1ccc(C2CNC(=O)C2)cc1OC1CCCC1` (stereo not shown) [rolipram]: the “activity of inflammatory cells in rodents” value is “inhibits the activity of inflammatory cells in rodents: inhibition of the synthesis of mediators by mastocytes, eosinophil and basophil polymorphonuclear leukocytes and monocytes; inhibition of chemotaxis and of the degranulation of polymorphonuclear leukocytes”.

Tested on in another data set: not given
Experiment: not given
The following applies: prior art; cited from earlier work.
Consider `COc1ccc(C2CNC(=O)C2)cc1OC1CCCC1` (stereo not shown) [rolipram], for which the undesirable effects entry is “undesirable effects of the type involving nausea and vomiting”.

Turning to `Cn1c(=O)c2[nH]cnc2n(C)c1=O` [theophylline], the therapeutic index result is given as “low therapeutic index”; the undesirable effects entry was “undesirable effects such as nausea and headaches”.
